From article PMC6009935 (Journal of Enzyme Inhibition and Medicinal Chemistry, 2017)

Columns and labels:
thermal nociception [1] = test: Hot plate test after i.c.v. injection; assay type: in vivo, mice; details: i.c.v. 1, 5 and 10 µg/mouse; 15-90 min
Description: (§1) In vivo nociception tests
(§2) Male CD-1 mice (Harlan, Italy) weighting 25-30 g were used for all experiments. Mice were housed for at least 1 week before the experimental sessions in colony cages (7 mice in each cage) under standard light (from 7.00 a.m. to 7.00 p.m.), temperature (21±1°C), relative humidity (60±10%) with food and water available ad libitum. The research protocol was approved by the Service for Biotechnology and Animal Welfare of the Istituto Superiore di Sanità and authorized by the Italian Ministry of Health, according to Legislative Decree 26/14, which implemented the European Directive 2010/63/UE on laboratory animal protection in Italy. […]
(§3) In the case of hot plate test, the thermal nociception was assessed with a commercially available apparatus consisting in a metal plate 25x25 cm (Ugo Basile, Italy) heated to a constant temperature of 55±0.1°C, on which a plastic cylinder (20 cm diameter, 18 cm high) was placed. The time of latency (s) was recorded from the moment the animal was inserted inside the cylinder up to when it licked its paws or jerked them off the hot plate; jumped off the hot plate; the latency exceeded the cut-off time of 60 s. The baseline was calculated as mean of three readings recorded before testing at intervals of 15-30 min. The time course of latency was then determined at 15, 30, 45, 60, and 90 min after treatment. […]

thermal nociception [2] = test: Tail flick test after i.c.v. injection; assay type: in vivo, mice; details: i.c.v. 1, 5 and 10 µg/mouse; 15-90 min
Description: as §1, §2, §3

## Cc1c(C(=O)NC2CCN(C(=O)[C@H](Cc3ccccc3)NC(=O)CNC(=O)[C@@H](C)NC(=O)[C@@H](N)Cc3ccc(O)cc3)CC2)nn(-c2ccc(Cl)cc2Cl)c1-n1cccc1 [Compound 9]
Thermal nociception [1]
  behavioral response to thermal nociceptive stimuli, hot plate test: no difference in treatments
Thermal nociception [2]
  latency of the nociceptive response, tail flick test: absence of effect
